According to patent US20110160167A1, “Steroid Derivatives Acting As Glucocorticosteroid Receptor Agonists” (AstraZeneca AB, priority 2007, published 2011):

Target: T1, recombinant human GR (Homo sapiens, UniProt P04150)
T1 construct: purchased Panvera/Invitrogen P2812 (kit P2893)
T1 sequence (P04150 1-777): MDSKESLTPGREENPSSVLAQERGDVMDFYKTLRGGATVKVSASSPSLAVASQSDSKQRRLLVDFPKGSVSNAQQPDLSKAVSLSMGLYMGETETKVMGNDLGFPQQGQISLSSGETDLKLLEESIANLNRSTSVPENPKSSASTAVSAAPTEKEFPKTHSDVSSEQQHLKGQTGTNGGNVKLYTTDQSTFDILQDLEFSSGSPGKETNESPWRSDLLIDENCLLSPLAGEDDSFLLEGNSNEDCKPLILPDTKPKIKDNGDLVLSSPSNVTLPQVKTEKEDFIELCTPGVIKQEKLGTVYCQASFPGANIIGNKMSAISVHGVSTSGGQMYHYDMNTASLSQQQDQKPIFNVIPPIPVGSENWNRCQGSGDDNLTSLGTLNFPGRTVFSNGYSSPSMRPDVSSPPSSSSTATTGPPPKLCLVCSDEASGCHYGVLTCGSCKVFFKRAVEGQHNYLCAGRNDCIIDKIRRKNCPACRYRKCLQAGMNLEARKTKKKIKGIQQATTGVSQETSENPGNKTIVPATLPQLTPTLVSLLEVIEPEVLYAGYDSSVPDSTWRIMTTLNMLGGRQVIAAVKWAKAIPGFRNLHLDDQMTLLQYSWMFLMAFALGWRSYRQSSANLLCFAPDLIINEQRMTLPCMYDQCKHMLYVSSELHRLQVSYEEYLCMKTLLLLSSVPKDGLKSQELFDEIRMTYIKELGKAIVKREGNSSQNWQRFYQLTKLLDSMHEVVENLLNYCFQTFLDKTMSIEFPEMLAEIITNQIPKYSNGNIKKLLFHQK
Experiment: Human Glucocorticoid Receptor (GR) Assay (fluorescence polarization, Panvera/Invitrogen kit)
Conditions: GS Red tracer, 2 hours at room temperature, 100% control 10 μM Dexamethasone, read-out: Inhibition of GR binding, IC50
Procedure: Human Glucocorticoid Receptor (GR) Assay The assay is based on a commercial kit from Panvera/Invitrogen (Part number P2893). The assay technology is fluorescence polarization. The kit utilises recombinant human GR (Panvera, Part number P2812), a Fluoromone™ labelled tracer (GS Red, Panvera, Part number P2894) and a Stabilizing Peptide 10× (Panvera, Part number P2815). The GR and Stabilizing Peptide reagents are stored at −70° C. while the GS Red is stored at −20° C. Also included in the kit are 1M DTT (Panvera, Part number P2325, stored at −20° C.) and GR Screening buffer 10× (Panvera, Part number P2814, stored at −70° C. initially but once thawed stored at room temperature). Avoid repeated freeze/thaws for all reagents. The GR Screening buffer 10× comprises 100 mM potassium phosphate, 200 mM sodium molybdate, 1 mM EDTA and 20% DMSO. Test compounds (1 μL) and controls (1 μL) in 100% DMSO were added to black polystyrene 384-well plates (Greiner low volume black flat-bottom, part number 784076). 0% control was 100% DMSO and 100% control was 10 μM Dexamethasone. Background solution (8 μL; assay buffer 10×, Stabilizing Peptide, DTT and ice cold MQ water) was added to the background wells. GS Red solution (7 μL; assay buffer 10×, Stabilizing Peptide, DTT, GS Red and ice cold water) was added to all wells except background wells. GR solution (7 μL; assay buffer 10×, Stabilizing Peptide, DTT, GR and ice cold water) was added to all wells. The plate was sealed and incubated in a dark at room temperature for 2 hours. The plate was read in an Analyst plate reader (LJL Biosystems/Molecular Devices Corporation) or other similar plate reader capable of recording fluorescence polarization (excitation wavelength 530 nm, emission wavelength 590 nm and a dichroic mirror at 561 nm).

IC50: 0.012 µM
Compound: CCC[C@@H]1O[C@@H]2C[C@H]3[C@@H]4CCC5=Cc6c(cnn6-c6ccc(F)cc6)C[C@]5(C)[C@H]4[C@@H](O)C[C@]3(C)[C@]2(C(=O)SCC#N)O1 [Example 25, (4aR,4bS,5S,6aS,6bS,8R,9aR,10aS,10bS)-6b-(cyanomethylthiocarbonyl)-1-(4-fluorophenyl)-5-hydroxy-4a,6a-dimethyl-8-propyl-4,4a,4b,5,6,6a,9a,10,10a,10b,11,12-dodecahydro[1,3]dioxolo[3′,4′]cyclopenta[1′,2′:5,6]naphtho[1,2-f]indazol]
